Experimental data published in patent US10342796B2, “Acrylanilide derivative, preparation method, and applications thereof in pharmacy” (Ancureall Pharmaceutical (Shanghai) Co., Ltd., priority 2015, dated 2019).
Read-outs that look alike come from different tables or passages of the source.

What was measured:
[1] = system: HCT116 (EGFR wt, Kras G13D); assay: Growth inhibition GI50 in vitro (CCK8/MTT, 72 h); assay type: cell-based; conditions: Homo sapiens, HCT-116
Experimental: (§1) The suspension cells were collected by centrifugation. The supernatant was discard and the cell pellet was resuspended and counted. Different cell concentrations (5˜10×10^4 cells/mL) were prepared according to the growth cycle of each cell line and then seeded on a 96-well plate (Corning), 100 μL/well. The cells were incubated over night at 37° C., 5% CO2. The compounds were added to the cells on the second day with 2 wells in parallel. The final concentration of organic solvent shall not exceed 1%. The cells were continually incubated for 72 h, and then subjected to MTT assay.
(§2) The present compounds and the reference compounds were dissolved with DMSO (Sigma), respectively. […] The storage concentration of compounds was 10 mM and kept at −20° C. They were diluted by 2 times or 10 times with serial dilution before using.
(§3) Dojindo CCK8 reagent kit was used as MTT assay. […] FC meter was used as microplate reader.
(§4) Adherent cell culture medium was discard and immediately replaced with fresh prepared medium which contains 10% CCK8 reagent (100 μL/well). For the suspension cells, CCK8 was directly added to 10% of the final concentration. The cells were continually incubated for 1˜4 h. When the color of control wells turned to dark yellow, the absorption value was measured at OD450 nm. The cell growth rate was calculated according to the following formula: cell growth rate (%)=100*(T−T0)/(C−T0), T=optical density of drug treatment cell well—optical density of blank control well; T0=optical density of cell well before drug treatment—optical density of blank control well; C=optical density of cell well of solvent control group—optical density of blank control well. […] The experiment was independently repeated 1˜3 times, and subject to biological statistical analysis.
(§5) Growth inhibition assay was conducted in the cell lines shown Table 14 with the different oncogene mutations. Each compound started at 1000 nM as an initial concentration and was diluted by 2 times with serial dilution to 0.03 nM.

[2] = system: H1993 (Met amp); assay: Growth inhibition GI50 in vitro (CCK8/MTT, 72 h); assay type: cell-based; conditions: Homo sapiens, NCI-H1993, H1993, EGFR wt
Experimental: (§6) Human gastric cancer cell line MKN-45 (ATCC) and NSCLC cell line NCI-H1993 (ATCC) were cultured with 1×RPMI1640 complete medium which was supplement with 10% FBS, respectively.
as §1, §2, §3, §4, §5

[3] = system: MKN-45 (Met amp); assay: Growth inhibition GI50 in vitro (CCK8/MTT, 72 h); assay type: cell-based; conditions: Homo sapiens, MKN-45, EGFR wt
Experimental: as §6, §1, §2, §3, §4, §5

[4] = system: H2228 (EML4-ALK); assay: Growth inhibition GI50 in vitro (CCK8/MTT, 72 h); assay type: cell-based; conditions: Homo sapiens, NCI-H2228, H2228, EGFR wt
[5] = system: Kasumi-1 (Kit N822K); assay: Growth inhibition GI50 in vitro (CCK8/MTT, 72 h); assay type: cell-based; conditions: Homo sapiens
Experimental: Kasumi-1 is a leukemia cell line positively expressing c-Kit N822K mutant Abnormal variation of c-Kit often appears in cancer patients. Kasumi-1 cell line was cultured with 1×RPMI1640 complete medium (supplement with 10% FBS).
as §1, §2, §3, §4, §5

[6] = system: MV4-11 (FLT3-ITD); assay: Growth inhibition GI50 in vitro (CCK8/MTT, 72 h); assay type: cell-based, human; conditions: for GI50: Homo sapiens, MV4-11, FLT3-ITD; for inhibition effects: FLT3-ITD+ MV4-11 cells
Experimental: FLT3 is a kind of PTK and about 20-30% of patients with acute myelocytic leukemia (AML) in clinic express FLT3-ITD mutation protein. FLT3-ITD positive cell line MV4-11 was cultured with 1×RPMI1640 complete medium (supplement with 10% FBS).
as §1, §2, §3, §4, §5

[7] = system: HEL (Jak2 V167F); assay: Growth inhibition GI50 in vitro (CCK8/MTT, 72 h); assay type: cell-based; conditions: Homo sapiens
Experimental: Jak2 is a kind of non-receptor PTK (Janus Kinase 2) with great significance in cell growth, differentiation and transformation. Jak2 gene mutation often leads to bone marrow hyperplasia and transformation. Especially Jak2 V167F mutation is common for clinical patients. Human erythroleukemia cell line HEL expressing Jak2 V167F was cultured with 1×RPMI1640 complete medium (supplement with 10% FBS).
as §1, §2, §3, §4, §5

[8] = system: H1975 tumor cells; assay: In vivo tumor growth inhibition, xenograft; set-up: species or system Bab/c nude mice; conditions: Mus musculus, NCI-H1975, po, 456 h; 25 mg/kg intragastric once daily, day 19; read-out: TGI (%) H1975
Excerpt: (§7) Tumor xenograft models of immunodeficient mice are an effective tool to test the antitumor activity of the compound in vivo. Generally, the effectiveness of human tumor cell xenograft is positively correlated with the clinical treatment of human tumor. Bab/c immunodeficient mouse is one of the most commonly used xenograft animals with human tumor cells. In order to test whether the present compounds can inhibit the in vivo growth of the tumor cells expressing EGFR mutantion or HER2/ErbB2 overexpression, H1975, PC-9 and NCI-N87 cell lines were used in the experiments. When H1975, PC-9 and NCI-N87 cells were in growth logarithmic phase, they were digested with pancreatin. An appropriate amount of 1×RPMI1640 culture medium (serum-free) was added to stop digestion. The cells were collected to a 50 ml centrifuge tube (Corning), and centrifuged at 1700 rm for 3 min. The supernatant was discard, then the cells were suspended with 1×RPMI1640 culture medium and count the number. […] cells/mL was prepared and then placed on ice. 5˜10×10^6 (0.2 ml) cells were inoculated subcutaneously on the right side of the back of 6˜8 week old female Bab/c nude mice (about 20 g in weight). When the tumor average volume growed to 100˜200 mm^3, the mice were randomly divide into groups (3-6 mice per group), and marked by ear pierced tags and weighted. The test compounds and the reference compound (with a purity over 99% and individual impurity not higher than 0.2%) were formulated to emulsion suspension with CM (30% polyethylene glycol 400, 0.5% Tween-80 and 2.5% propylene glycol) respectively. Intragastric administration was continued once daily at a dosage of 25 mg/kg (0.1 ml/10 g mouse). The tumor was measured 3 times per week. When the average volume of the tumor in CM control group was up to 1500 mm^3 or after administration for 30 days, the experiment was ended.
(§8) The volume of tumor (V) was calculated as V=½*a*b^2 (a represents length of tumors, b represents width of tumors). Tumor growth inhibition (TGI) was calculated as: TGI (%)=100−(VT−VT0)/(VC−VC0)*100%; where VT0 and VT are the tumor volumes of the beginning and finish days of dosed groups; and VC0 and VC are the tumor volumes of the beginning and finish days for the control group, respectively.

[9] = system: PC-9 tumor cells; assay: In vivo tumor growth inhibition, xenograft; set-up: species or system Bab/c nude mice; conditions: Mus musculus, po, 456 h; 25 mg/kg intragastric once daily, day 19; read-out: TGI (%) PC-9
Excerpt: as §7, §8

[10] = system: HER2/ErbB2 amplified cell line N87; assay: In vivo tumor growth inhibition, xenograft; set-up: species or system Bab/c nude mice; conditions: Mus musculus, po, 456 h, 25 mg/kg intragastric once daily, day 19, read-out: TGI (%)
Excerpt: as §7, §8

[11] = HCT116, EGFR wt, Kras G13D, read-out: GI50
[12] = HEL, Jak2 V167F, read-out: GI50

Work on `C=CC(=O)Nc1cc(Nc2nccc(-c3cn(C)c4ccccc34)n2)c(OC)cc1N(C)CCN(C)C` [AZD9291, reference compound] yielded a GI50 [1] of over 1000 nM, a GI50 [2] of over 1000 nM and a GI50 [3] of over 1000 nM. The GI50 [4] was over 500 nM, the GI50 [5] was over 1000 nM and the GI50 [6] was over 1000 nM. For the same compound, the GI50 [7] was over 1000 nM, the inhibition in vivo at 25 mg/kg [8] was 98.4% and the inhibition in vivo at 25 mg/kg [9] was 97.2%.

`C=CC(=O)Nc1cc(Nc2nccc(Nc3cccc(Cl)c3)n2)c(OC)cc1N(C)CCN(C)C` [Compound 2, N-(5-(4-(3-chloro-phenylamino)-pyrimidin-2-ylamino)-2-(2-(dimethylamino-ethyl)-methyl-amino)-4-methoxyl-phenyl)-acrylamide] showed a GI50 [1, 11] of over 1000 nM, a GI50 [2] of over 1000 nM and a GI50 [3] of over 1000 nM. It also gave a GI50 [4] of over 500 nM, a GI50 [5] of over 1000 nM and a GI50 [6] of over 1000 nM. It also gave a GI50 [7, 12] of over 1000 nM.

`C=CC(=O)Nc1cc(Nc2nccc(Nc3ccc(OCc4ccccn4)c(Cl)c3)n2)c(OC)cc1N(C)CCN(C)C` [Compound 18, N-(5-(4-(3-chloro-4-(pyridin-2-methoxyl)phenylamino)pyrimidin-2-ylamino)-2-((2-(dimethylamino)ethyl)(methyl)amino)-4-methoxyl-phenyl)-acrylamide] showed a GI50 [1, 11] of over 1000 nM, a GI50 [2] of over 1000 nM and a GI50 [3] of over 1000 nM. The GI50 [4] was over 500 nM, the GI50 [5] was over 1000 nM and the GI50 [6] was over 1000 nM. It also gave a GI50 [7, 12] of over 1000 nM, an inhibition in vivo at 25 mg/kg [8] of 96.7% and an inhibition in vivo at 25 mg/kg [9] of 98.3%.

`C=CC(=O)Nc1cc(Nc2ncc(Cl)c(Nc3ccc(OCc4ccccn4)c(Cl)c3)n2)c(OC)cc1N(C)CCN(C)C` [Compound 19, N-(5-(5-chloro-4-(3-chloro-4-(pyridin-2-methoxyl)phenylamino)-pyrimidin-2-ylamino)-2-((2-(dimethylamino)ethyl)(methyl)amino)-4-methoxyl-phenyl)-acrylamide] showed a GI50 [1, 11] of over 1000 nM, a GI50 [2] of over 1000 nM and a GI50 [3] of 500 nM. It also gave a GI50 [4] of over 500 nM, a GI50 [5] of over 1000 nM and a GI50 [6] of over 1000 nM. It also gave a GI50 [7, 12] of over 1000 nM.

`C=CC(=O)Nc1cc(Nc2nccc(-n3cnc4ccccc43)n2)c(OC)cc1N(C)CCN(C)C` [Compound 106] gave a GI50 [1, 11] of over 1000 nM, a GI50 [2] of over 1000 nM and a GI50 [3] of over 1000 nM. For the same compound, the GI50 [4] was over 500 nM, the GI50 [5] was over 1000 nM and the GI50 [6] was over 1000 nM. The GI50 [7, 12] was over 1000 nM.

Work on `C=CC(=O)Nc1cc(Nc2ncnc(Nc3cccc(F)c3)n2)c(OC)cc1N(C)CCN(C)C` [Compound 114, N-(5-(4-(3-fluoro-phenylamino)-[1,3,5]triazin-2-ylamino)-2-((2-dimethylamino-ethyl)-methyl-amino)-4-methoxyl-phenyl)-acrylamide] yielded a GI50 [1, 11] of over 1000 nM, a GI50 [2] of over 1000 nM and a GI50 [3] of 465 nM. The GI50 [4] was over 500 nM, the GI50 [5] was under 100 nM and the “inhibition effects” value [6] was “moderate inhibition effects”. The GI50 [6] was 124 nM and the GI50 [7, 12] was over 1000 nM.

With `C=CC(=O)Nc1cc(Nc2ncnc(Nc3cccc(Br)c3)n2)c(OC)cc1N1CCC(N2CCCC2)CC1` [Compound 118] the GI50 [1, 11] was over 1000 nM, the GI50 [3] was 465 nM and the GI50 [4] was over 500 nM. The GI50 [5] was under 100 nM, the “inhibition effects” value [6] was “moderate inhibition effects” and the GI50 [6] was 156 nM. For the same compound, the GI50 [7, 12] was over 1000 nM.

Work on `C=CC(=O)Nc1cc(Nc2cc(Nc3cc(OC)c(Cl)cc3Cl)ncn2)c(OC)cc1N(C)CCN(C)C` [Compound 136, N-(5-(6-(2,4-dichloro-5-methoxyl-phenylamino)-pyrimidin-4-ylamino)-2-((2-dimethylamino-ethyl)-methyl-amino)-4-methoxyl-phenyl)-acrylamide] yielded an inhibition in vivo at 25 mg/kg [10] of 96.7%.

In the case of `C=CC(=O)Nc1cc(Nc2cc(Nc3ccc(F)c(Cl)c3)ncn2)c(OC)cc1N(C)CCN(C)C` [Compound 140, N-(5-(6-(3-chloro-4-fluoro-phenylamino)-pyrimidin-4-ylamino)-2-((2-dimethylamino-ethyl)-methyl-amino)-4-methoxyl-phenyl)-acrylamide], the GI50 [1, 11] is reported as over 1000 nM, the GI50 [2] is reported as over 1000 nM and the GI50 [3] is reported as over 1000 nM. The GI50 [4] was over 500 nM, the GI50 [5] was over 1000 nM and the “inhibition effects” value [6] was “moderate inhibition effects”. For the same compound, the GI50 [6] was over 1000 nM, the GI50 [7, 12] was over 1000 nM and the inhibition in vivo at 25 mg/kg [8] was 98.4%. For the same compound, the inhibition in vivo at 25 mg/kg [9] was 97.9%.

Work on `C=CC(=O)Nc1cc(Nc2cc(Nc3ccc(F)c(Cl)c3)ncn2)c(OC)cc1N1CCN(C2CCN(C)CC2)CC1` [Compound 147, N-(5-(6-(3-chloro-4-fluoro-phenylamino)-pyrimidin-4-ylamino)-4-methoxyl-2-(4-(1-methylpiperidin-4-yl)-piperazin-1-yl)-phenyl)-acrylamide] yielded a GI50 [1, 11] of over 1000 nM, a GI50 [2] of over 1000 nM and a GI50 [3] of over 1000 nM. The GI50 [4] was over 500 nM, the GI50 [5] was over 1000 nM and the GI50 [6] was over 1000 nM. For the same compound, the GI50 [7, 12] was over 1000 nM.

`C=CC(=O)Nc1cc(Nc2nccc(-n3ccc4c(OCCOC)cccc43)n2)c(OC)cc1N(C)CCN(C)C` [Compound 205, N-(5-(4-(4-(2-methoxyl-ethoxyl)-1H-indol-1-yl)-pyrimidin-2-ylamino)-2-(2-(dimethylamino-ethyl)-methyl-amino)-4-methoxyl-phenyl)-acrylamide] showed an inhibition in vivo at 25 mg/kg [8] of 99.5% and an inhibition in vivo at 25 mg/kg [9] of 96.5%.

Compound `C=CC(=O)Nc1cc(Nc2cc(Nc3ccc(OCC4CCOCC4)c(Cl)c3)ncn2)c(OC)cc1N(C)CCN(C)C` [Compound 216, N-(5-(6-(3-chloro-4-(tetrahydropyran-4-yl-methoxyl)-phenylamino)-pyrimidin-4-ylamino)-2-((2-dimethylaminoethyl)-methyl-amino)-4-methoxyphenyl)-acrylamide] has an inhibition in vivo at 25 mg/kg [10] of 97.6%.
